In US9902794B2, “Curable composition, optical component and compound” (FUJIFILM Corporation, priority 2014, dated 2018):

assay: Solvent solubility evaluation of aromatic ring-containing compound in PGMEA; assay type: physicochemical; details: 1 g compound and 1 mL PGMEA stirred for 24 hours at 25° C.
Method: <Solvent Solubility Evaluation>
1 g of an aromatic ring-containing compound and 1 mL of propylene glycol monomethyl ether acetate (PGMEA) were stirred for 24 hours at 25° C. and then the aromatic ring-containing compound was mixed with PGMEA uniformly and evaluated by the following criteria.
A: 50% by mass or more of an aromatic ring-containing compound were dissolved in PGMEA.
B: 30% by mass or more and less than 50% by mass of an aromatic ring-containing compound were dissolved in PGMEA.
C: 5% by mass or more and less than 30% by mass of an aromatic ring-containing compound were dissolved in PGMEA.
D: The amount of an aromatic ring-containing compound dissolved in PGMEA was less than 5% by mass.
The solvent solubility of an aromatic ring-containing compound was measured in the same manner as described above.

| SMILES | Solvent solubility evaluation |
| --- | --- |
| C=CC(=O)OCCOc1ccc2nc(-c3ccc(C4(c5ccc(-c6nc7ccc(OCCOC(=O)C=C)cc7s6)cc5)c5ccccc5-c5cc6ccccc6cc54)cc3)sc2c1 [Compound 6] | A (50% by mass or more of an aromatic ring-containing compound were dissolved in PGMEA) |
| C=CC(=O)OCCOc1ccc2c(c1)-c1cc3ccccc3cc1C2(c1ccc(-c2nc3ccccc3s2)cc1)c1ccc(OCCOC(=O)C=C)c2ccccc12 (stereo not drawn) [Compound 2] | A (50% by mass or more of an aromatic ring-containing compound were dissolved in PGMEA) |
| C=CC(=O)OCCOc1ccc(-c2ccc(C3(c4ccc(OCCOC(=O)C=C)cc4)c4ccccc4-c4cc5sc(-c6ccccc6)nc5cc43)cc2)cc1 (stereo not drawn) [Compound C] | B (30% by mass or more and less than 50% by mass of an aromatic ring-containing compound were dissolved in PGMEA) |
| C=CC(=O)OCCOc1ccc2c(c1)-c1cc3ccccc3cc1C2(c1ccc(-c2nc3ccccc3s2)cc1)c1ccc2cc(OCCOC(=O)C=C)ccc2c1 (stereo not drawn) [Compound 1] | A (50% by mass or more of an aromatic ring-containing compound were dissolved in PGMEA) |
| C=CC(=O)OCCOc1ccc2cc(-c3ccc4nc(C5(c6nc7ccc(-c8ccc9cc(OCCOC(=O)C=C)ccc9c8)cc7s6)c6ccccc6-c6cc7ccccc7cc65)sc4c3)ccc2c1 [Compound 5] | A (50% by mass or more of an aromatic ring-containing compound were dissolved in PGMEA) |
| C=CC(=O)OCCOc1ccc(C2(c3ccc4sc(-c5ccc6cc(OCCOC(=O)C=C)ccc6c5)nc4c3)c3ccccc3-c3cc4ccccc4cc32)cc1 (stereo not drawn) [Compound J] | A (50% by mass or more of an aromatic ring-containing compound were dissolved in PGMEA) |
| C=CC(=O)OCCOc1ccc2cc(C3(c4ccc(OCCOC(=O)C=C)c(-c5nc6ccccc6s5)c4)c4ccccc4-c4cc5ccccc5cc43)ccc2c1 (stereo not drawn) [Compound E] | A (50% by mass or more of an aromatic ring-containing compound were dissolved in PGMEA) |
| C=CC(=O)OCCOc1ccc(-c2nc3cc(C4(c5ccc6oc(-c7ccc(OCCOC(=O)C=C)cc7)nc6c5)c5ccccc5-c5cc6ccccc6cc54)ccc3o2)cc1 [Compound H] | B (30% by mass or more and less than 50% by mass of an aromatic ring-containing compound were dissolved in PGMEA) |
| C=CC(=O)OCCOc1ccc(-c2nc3cc(C(c4ccccc4)(c4ccccc4)c4ccc5sc(-c6ccc(OCCOC(=O)C=C)cc6)nc5c4)ccc3s2)cc1 [Compound A] | B (30% by mass or more and less than 50% by mass of an aromatic ring-containing compound were dissolved in PGMEA) |
| C=CC(=O)OCCOc1ccc2cc(-c3nc4ccc(C5(c6ccc7nc(-c8ccc9cc(OCCOC(=O)C=C)ccc9c8)sc7c6)c6ccccc6-c6cc7ccccc7cc65)cc4s3)ccc2c1 [Compound 10] | A (50% by mass or more of an aromatic ring-containing compound were dissolved in PGMEA) |
| C=CC(=O)OCCOc1ccc2c(c1)C(c1ccc(-c3nc4ccccc4o3)cc1)(c1ccc3cc(OCCOC(=O)C=C)ccc3c1)c1cc3ccccc3cc1-2 (stereo not drawn) [Compound D] | B (30% by mass or more and less than 50% by mass of an aromatic ring-containing compound were dissolved in PGMEA) |
| C=CC(=O)OCCOc1ccc2nc(-c3ccc(C4(c5ccc(-c6nc7ccc(OCCOC(=O)C=C)cc7s6)cc5)c5ccccc5-c5ccccc54)cc3)sc2c1 [Compound 3] | A (50% by mass or more of an aromatic ring-containing compound were dissolved in PGMEA) |
| C=CC(=O)OCCOc1ccc(-c2nc3ccc(C4(c5ccc6nc(-c7ccc(OCCOC(=O)C=C)cc7)sc6c5)c5ccccc5-c5cc6ccccc6cc54)cc3s2)cc1 [Compound 9] | A (50% by mass or more of an aromatic ring-containing compound were dissolved in PGMEA) |
| C=CC(=O)OCCOc1ccc2nc(C3(c4nc5ccc(OCCOC(=O)C=C)cc5s4)c4ccccc4-c4ccccc43)sc2c1 [Compound I] | A (50% by mass or more of an aromatic ring-containing compound were dissolved in PGMEA) |
| C=CC(=O)OCCOc1ccc(C2(c3ccc4sc(-c5ccccc5)nc4c3)c3ccccc3-c3cc(OCCOC(=O)C=C)ccc32)cc1 (stereo not drawn) [Compound F] | B (30% by mass or more and less than 50% by mass of an aromatic ring-containing compound were dissolved in PGMEA) |
| C=CC(=O)OCCOc1ccc(-c2ccc3nc(C4(c5nc6ccc(-c7ccc(OCCOC(=O)C=C)cc7)cc6s5)c5ccccc5-c5cc6ccccc6cc54)sc3c2)cc1 [Compound 4] | A (50% by mass or more of an aromatic ring-containing compound were dissolved in PGMEA) |
| C=CC(=O)OCCOc1ccc(-c2nc3ccc(C4(c5ccc6nc(-c7ccc(OCCOC(=O)C=C)cc7)sc6c5)c5ccccc5-c5ccccc54)cc3s2)cc1 [Compound 7] | A (50% by mass or more of an aromatic ring-containing compound were dissolved in PGMEA) |
| C=CC(=O)OCCOc1ccc(C2(c3ccc(OCCOC(=O)C=C)cc3)c3ccccc3-c3cc4sc(-c5ccccc5)nc4cc32)cc1 [Compound G] | B (30% by mass or more and less than 50% by mass of an aromatic ring-containing compound were dissolved in PGMEA) |
| C=CC(=O)OCCOc1ccc2c(c1)-c1cc(OCCOC(=O)C=C)ccc1C2(c1ccc2nc(-c3ccccc3)sc2c1)c1ccc2nc(-c3ccccc3)sc2c1 [Compound B] | B (30% by mass or more and less than 50% by mass of an aromatic ring-containing compound were dissolved in PGMEA) |
| C=CC(=O)OCCOc1ccc(C2(c3ccc(OCCOC(=O)C=C)cc3)c3ccccc3-c3ccccc32)cc1 [Comparative Compound 1, reference compound] | C (5% by mass or more and less than 30% by mass of an aromatic ring-containing compound were dissolved in PGMEA) |
| C=CC(=O)OCCOc1ccc2cc(-c3nc4ccc(C5(c6ccc7nc(-c8ccc9cc(OCCOC(=O)C=C)ccc9c8)sc7c6)c6ccccc6-c6ccccc65)cc4s3)ccc2c1 [Compound 8] | A (50% by mass or more of an aromatic ring-containing compound were dissolved in PGMEA) |
